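Five concentrations, 48 hours, 96-well plates. GI50 marks 50% less growth. Definition used: TGI = concentration required for complete inhibition of growth.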
Tests used:
Assay in all cases: growth of human tumour cells (NCI), 48 h
[1] = system: A498 renal
[2] = system: A549 NSCLC
[3] = system: CCRF-CEM leukemia
[4] = system: HCC-2998 colon
[5] = system: HOP-92 NSCLC
[6] = system: MOLT-4 leukemia
[7] = system: NCI-H460 lung
[8] = system: RPMI-8226 leukemia
[9] = system: SNB-75 CNS
[10] = system: IGROV1 ovarian

SMILES	TGI [1] [µM]	TGI [2] [µM]	TGI [3] [µM]	TGI [4] [µM]	TGI [5] [µM]	TGI [6] [µM]	TGI [7] [µM]	TGI [8] [µM]	TGI [9] [µM]	TGI [10] [µM]	GI50 [1] [µM]	GI50 [2] [µM]	GI50 [3] [µM]	GI50 [4] [µM]	GI50 [5] [µM]	GI50 [10] [µM]	GI50 [6] [µM]	GI50 [7] [µM]	GI50 [8] [µM]	GI50 [9] [µM]
C=C1NC(=O)C(CC(C(=O)C(=O)Nc2c(C)cccc2C(C)(C)C)C(=O)c2ccc3ccccc3c2)C(=O)N1 (configuration not stated)	> 100	> 100	> 100	> 100	> 100	> 100	> 100	> 100	> 100	–	–	–	–	–	–	–	–	–	–	–
CC1CCc2c(c(CC3CC(=O)NC(=O)C3)nn2-c2ccccc2)C1 (configuration not stated)	> 100	> 100	> 100	> 100	> 100	> 100	> 100	> 100	> 100	> 100	–	–	–	–	–	–	–	–	–	–
COc1cc2ncn(-c3cc(OCc4ccccc4C(F)(F)F)c(C(C)=O)s3)c2cc1OC	17.2	> 25	> 25	> 25	> 25	> 25	> 25	> 25	> 25	> 25	4.1	> 25	> 25	> 25	10.8	> 25	> 25	> 25	> 25	19
CCCCCCCCCOC(=S)NCCCCC	59	81.7	63.4	> 100	53.9	42.6	64	40	> 100	> 100	–	–	–	–	–	–	–	–	–	–
Cc1nnc(-c2ccc(C)c(-c3ccc(C(=O)NCc4ccc(Cl)cc4)cc3)c2)o1	> 25	> 25	> 25	> 25	> 25	> 25	> 25	> 25	> 25	> 25	7.03	11.5	14.7	17.5	3.26	> 16.3	9.73	11.9	10.2	7.88
CC[C@@H](C)Nc1cc(C(=O)NC2CC3CCC(C2)N3c2ccc(C(=O)C3CC3)cn2)c(C)cc1C(N)=O (some centres not stated)	> 100	> 100	> 100	13.5	0.599	31	> 54.2	> 74.3	> 100	> 100	0.103	0.0343	0.0482	0.0395	0.0422	0.0436	0.0374	0.0299	0.0538	0.192
COC(=O)c1ccc2c(c1)c1c(C)c3ccncc3c(C)c1n2C	13.7	> 100	> 100	> 100	> 100	44.7	12.6	25.1	15.9	> 100	0.583	0.484	0.518	3.86	0.378	0.0801	0.0992	0.296	0.259	0.104
Cc1cc(NNC(=O)c2ccccc2O)nc(Nc2nc3ccccc3o2)n1	3.25	10.3	11.8	13.8	13.9	7.88	6.77	13.9	17.4	12.2	1.53	1.13	–	2.13	1.11	1.3	1.31	0.422	1.85	3.49
COC(=O)C(=O)C(C(=O)C(=O)Nc1ccc(C)cc1)c1nc2ccc(C(=O)c3ccccc3)cc2[nH]c1=O (configuration not stated)	> 100	> 100	> 100	> 100	> 100	–	> 100	> 100	> 100	> 100	–	–	–	–	–	–	–	–	–	–
OC1CCC[C@@H]1Sc1ccccc1 (some centres not stated)	> 100	> 100	> 100	> 100	> 100	> 100	> 100	> 100	> 100	–	–	–	–	–	–	–	–	–	–	–
CCCCCCN(C)Cc1ccc(OCCOc2ccc(CN(C)CCCCCC)cc2)cc1	3.17	2.91	–	1.81	2.05	10.5	2.99	25.4	2.57	3.13	1.24	1.4	–	0.491	0.407	1.33	2.48	1.35	1.62	1.2
O=C(O)CCSC(=S)Nc1cccc(F)c1	77.7	> 100	–	> 100	98.9	> 100	> 100	> 100	> 100	80.9	–	–	–	–	–	–	–	–	–	–
Cc1ccc(/C=C(\C#N)c2ccccc2)cc1	> 100	–	> 100	> 100	> 100	> 100	> 100	> 100	> 100	> 100	–	–	–	–	–	–	–	–	–	–

— PubChem BioAssay (NCI)
